According to PubChem BioAssay (NCI):
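Each compound was tested at five concentrations against cells in 96-well plates for 48 hours. GI50: concentration for 50% inhibition of growth. TGI: concentration producing complete growth inhibition.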

Legend:
Assay in all cases: inhibition of tumour cell growth, NCI panel, 48 h
[1] = test system: 786-0 renal
[2] = test system: DU-145 prostate
[3] = test system: EKVX NSCLC
[4] = test system: HT29 colon
[5] = test system: MDA-MB-231 breast
[6] = test system: MDA-N
[7] = test system: OVCAR-4 ovarian
[8] = test system: SK-MEL-28 melanoma
[9] = test system: SK-OV-3 ovarian
[10] = test system: T-47D breast
[11] = test system: LOX IMVI melanoma

SMILES | TGI [1] | TGI [2] | TGI [3] | TGI [4] | TGI [5] | TGI [6] | TGI [7] | TGI [8] | TGI [9] | TGI [10] | TGI [11] | GI50 [2] | GI50 [3] | GI50 [4] | GI50 [11] | GI50 [5] | GI50 [7] | GI50 [8] | GI50 [9] | GI50 [10]
CC12CC(C/C1=N/O)C(C)(C)C2 (centres undefined) | > 100 µM | > 100 µM | > 100 µM | > 100 µM | > 100 µM | > 100 µM | > 100 µM | > 100 µM | > 100 µM | > 100 µM | – | – | – | – | – | – | – | – | – | –
CNc1ccc(S(=O)Nc2ccccc2)cc1 (centres undefined) | > 100 µM | > 100 µM | > 100 µM | > 100 µM | > 100 µM | > 100 µM | > 100 µM | > 100 µM | – | 49.5 µM | > 100 µM | – | – | – | – | – | – | – | – | –
O=C1C=C(N2CCN(c3ccccn3)CC2)C(=O)c2c(O)ccc(O)c21 | 42.9 µM | > 55.5 µM | > 65.7 µM | 31.2 µM | 44.9 µM | 5.76 µM | 28.2 µM | > 56.2 µM | 51.3 µM | > 100 µM | > 45 µM | – | – | – | – | – | – | – | – | –
Nc1ncc(/C=N/O)c(NCC2(CO)CC(CCc3ccccc3)C2)n1 (centres undefined) | 37.2 µM | 28.8 µM | – | 9.07 µM | 21.8 µM | – | 48.5 µM | – | – | 17.2 µM | 22.3 µM | – | – | – | – | – | – | – | – | –
Oc1[nH]c2ccccc2c1/C=c1/cc2c(c(-c3ccc(C(F)(F)F)cc3)n1)=Nc1ccccc1-2 | – | 34.8 µM | > 100 µM | 11.4 µM | 13.9 µM | – | 13.6 µM | 18.8 µM | 56.6 µM | 13.9 µM | 22.5 µM | 8.93 µM | 10.5 µM | 3.16 µM | 8.87 µM | 1.89 µM | 2.75 µM | 1.84 µM | 13.8 µM | 3.05 µM
O=C1CSC2(CC(/C=C/c3ccccc3Br)=NN2c2cccc(S(=O)(=O)O)c2)N1c1nc2ccccc2s1 (centres undefined) | > 100 µM | > 100 µM | > 100 µM | > 100 µM | > 100 µM | > 100 µM | > 100 µM | > 100 µM | – | > 100 µM | > 100 µM | – | – | – | – | – | – | – | – | –
CC(C)(C)c1ccc(-c2nnc(-c3cc(C#N)cc(-c4nnc(-c5ccc(C(C)(C)C)cc5)o4)c3)o2)cc1 | > 100 µM | > 100 µM | > 100 µM | > 100 µM | > 100 µM | > 100 µM | > 100 µM | > 100 µM | > 100 µM | > 100 µM | > 100 µM | – | – | – | – | – | – | – | – | –
N#CCCC1(CCC#N)CCCCCCC(CCC#N)(CCC#N)C(O)C1O (centres undefined) | > 100 µM | > 100 µM | – | > 100 µM | – | > 100 µM | > 100 µM | > 100 µM | > 100 µM | > 100 µM | > 100 µM | – | – | – | – | – | – | – | – | –
CC12CC(c3ccccc3O1)C(C(=O)Nc1cccc(F)c1)C(=O)N2 (centres undefined) | > 100 µM | > 100 µM | > 100 µM | > 100 µM | – | > 100 µM | > 100 µM | > 100 µM | > 100 µM | 89.2 µM | > 100 µM | – | – | – | – | – | – | – | – | –
CC1(C)COC(c2c(-c3ccccc3)noc2CS(=O)c2ccccc2)=N1 (centres undefined) | > 100 µM | – | > 100 µM | > 100 µM | – | – | > 100 µM | > 100 µM | > 100 µM | – | > 100 µM | – | – | – | – | – | – | – | – | –
COC(=O)C(C(=O)C(=O)NC1Nc2ccc(C)cc2S1)c1nc2ccc(Cl)cc2[nH]c1=O (centres undefined) | > 100 µM | – | > 100 µM | > 100 µM | > 100 µM | > 100 µM | > 100 µM | > 100 µM | > 100 µM | > 100 µM | > 100 µM | – | – | – | – | – | – | – | – | –
Cc1cn([C@H]2[C@@H](CO)C[C@H]2O)c(=O)[nH]c1=O | > 100 µM | > 100 µM | > 100 µM | > 100 µM | > 100 µM | > 100 µM | > 100 µM | > 100 µM | – | – | > 100 µM | – | – | – | – | – | – | – | – | –
CCCCCCOc1ccc(C(=N)N(CCCC)CCCC)c2ccccc12 | – | 2.86 µM | – | – | – | – | – | 3.2 µM | 2.96 µM | – | – | 1.49 µM | – | – | – | – | – | 1.77 µM | 1.57 µM | –
CC(=O)Nc1ccc(C(=O)N2N=C(C)/C(=C/c3ccc(O)cc3)C2=O)cc1 | > 100 µM | – | > 100 µM | > 100 µM | – | – | > 100 µM | > 100 µM | – | – | > 100 µM | – | – | – | – | – | – | – | – | –
OC12CCCCCC1(N1CCOCC1)c1ccccc12 (centres undefined) | > 100 µM | – | – | > 100 µM | – | – | > 100 µM | > 100 µM | > 100 µM | – | > 100 µM | – | – | – | – | – | – | – | – | –
COc1ccc(/C=C2\CCC(CNc3ccc(Br)cc3)C2=O)cc1 (centres undefined) | > 100 µM | > 100 µM | > 100 µM | > 100 µM | > 100 µM | – | > 100 µM | > 100 µM | > 100 µM | > 100 µM | > 100 µM | – | – | – | – | – | – | – | – | –
COC(=O)CC(NC(=O)OCc1ccccc1)C(C(=O)OCc1ccccc1)C1(C)OCCO1 (centres undefined) | > 100 µM | – | > 100 µM | > 100 µM | – | – | > 100 µM | > 100 µM | – | – | > 100 µM | – | – | – | – | – | – | – | – | –
CCOc1ccc(-c2oc(/C=N/NS(=O)(=O)c3ccc(C)cc3)c([N+](=O)[O-])c2-c2ccc(OCC)cc2)cc1 | 29.7 µM | – | 80 µM | 20.7 µM | – | – | 25.4 µM | 28.3 µM | 42.7 µM | – | 12.6 µM | – | – | – | – | – | – | – | – | –
CCOC(=O)/C(C#N)=C/N(CC)/N=C/c1ccccc1 | > 100 µM | > 100 µM | > 100 µM | > 100 µM | > 100 µM | > 100 µM | > 100 µM | > 100 µM | > 100 µM | > 100 µM | – | – | – | – | – | – | – | – | – | –
CCOC(=O)c1nc2ccccc2nc1NCc1ccc(Cl)cc1Cl | > 100 µM | – | > 100 µM | > 100 µM | > 100 µM | > 100 µM | > 100 µM | – | > 100 µM | > 100 µM | > 100 µM | – | – | – | – | – | – | – | – | –
Cc1cc(=O)[nH]c(NNC(C#N)c2ccc([N+](=O)[O-])cc2)n1 (centres undefined) | > 100 µM | – | – | > 100 µM | – | – | > 100 µM | > 100 µM | > 100 µM | – | > 100 µM | – | – | – | – | – | – | – | – | –
CCOC1=C2NC(Cc3ccc(F)cc3)=NC2C(=O)c2ccccc21 (centres undefined) | 47.8 µM | – | 85.7 µM | 58.7 µM | – | – | – | 67.8 µM | > 100 µM | – | 71.4 µM | – | – | – | – | – | – | – | – | –
